In brackets after ≈: the same amount, converted by molar mass. Activity calls are given as the source filed them. No cut-off for these calls is given here.
How the values were obtained:
[1] = target: T1, Androgen receptor (Homo sapiens) (UniProt P10275); experiment: Agonist activity at human androgen receptor expressed in mouse C2C12 cells by androgen-specific response element-driven luciferase reporter gene assay relative to DHT; assay type: cell-based
T1 sequence (whole entry): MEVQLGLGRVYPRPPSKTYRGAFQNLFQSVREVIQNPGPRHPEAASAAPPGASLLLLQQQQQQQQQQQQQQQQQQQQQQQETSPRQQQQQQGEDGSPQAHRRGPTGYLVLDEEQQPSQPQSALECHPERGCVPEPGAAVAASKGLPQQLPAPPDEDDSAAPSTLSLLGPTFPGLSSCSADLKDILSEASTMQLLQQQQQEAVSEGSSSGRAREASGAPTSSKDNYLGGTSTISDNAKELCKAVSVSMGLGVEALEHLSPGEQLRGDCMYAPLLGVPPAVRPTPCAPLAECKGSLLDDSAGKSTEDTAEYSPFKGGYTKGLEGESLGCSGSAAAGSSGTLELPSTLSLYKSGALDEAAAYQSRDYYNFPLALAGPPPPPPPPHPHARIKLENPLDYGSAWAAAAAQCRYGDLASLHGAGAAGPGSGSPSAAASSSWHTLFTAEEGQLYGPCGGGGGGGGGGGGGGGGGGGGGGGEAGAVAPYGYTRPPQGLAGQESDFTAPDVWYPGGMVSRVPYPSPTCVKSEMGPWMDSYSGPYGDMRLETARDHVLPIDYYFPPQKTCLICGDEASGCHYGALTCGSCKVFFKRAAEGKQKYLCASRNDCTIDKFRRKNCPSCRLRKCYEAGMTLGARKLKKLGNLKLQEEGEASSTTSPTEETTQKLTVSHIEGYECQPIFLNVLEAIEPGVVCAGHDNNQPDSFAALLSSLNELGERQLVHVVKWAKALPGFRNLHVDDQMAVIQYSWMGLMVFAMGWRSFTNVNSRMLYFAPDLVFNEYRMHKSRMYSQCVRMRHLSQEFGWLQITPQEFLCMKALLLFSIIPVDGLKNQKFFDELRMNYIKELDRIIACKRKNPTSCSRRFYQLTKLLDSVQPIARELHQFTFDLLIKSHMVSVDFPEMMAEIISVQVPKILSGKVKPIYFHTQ

Zone of skin = experiment: Skin permeability in human cadaver skin in Franz diffusion cell system; assay type: ADME
[2] = Lipophilicity, logP of the compound; assay type: physicochemical; details: octanol/water
[3] = Thermodynamic solubility of the compound at pH 7.4; assay type: physicochemical; details: buffer, read-out: Therm_solubility
Androgen receptor [4] = target: T2, Androgen receptor (Homo sapiens, UniProt P10275)
T2 sequence (P10275 whole entry): T1 sequence (whole entry)

[5] = Skin permeability by silicone and isopropyl myristate (70:30) containing artificial membranes based skin PAMPA method; assay type: ADME
[6] = Skin drug retention by silicone and isopropyl myristate (70:30) containing artificial membranes based skin PAMPA method
Rattus norvegicus [7] = experiment: Anabolic activity in orchidectomized rat assessed as stimulation of bulbocavernosus/levator ani muscle weight treated subcutaneously once daily for 14 days by Hershberger assay; assay type: functional; details: for ED50: sc, 336 h
Rattus norvegicus [8] = experiment: Androgenic activity in orchidectomized rat assessed as stimulation of prostate weight treated subcutaneously once daily for 14 days by Hershberger assay; assay type: organism-based; details: Prostate gland, sc, 336 h
Androgen receptor [9] = target: T2, Androgen receptor; details: c2c12
Rattus norvegicus [10] = experiment: Bioavailability in Wistar rat at 0.5 mg/kg, sc; assay type: ADME, organism-based; details: in vivo
Androgen receptor [11] = target: T2, Androgen receptor; experiment: Displacement of [3H]DHT from androgen receptor in human MDA-MB-435 cells after 30 mins; assay type: cell-based
Glucocorticoid receptor = target: T3, Glucocorticoid receptor (Homo sapiens, UniProt P04150); experiment: Binding affinity to glucocorticoid receptor (unknown origin) incubated for 4 hrs
T3 sequence (P04150 whole entry): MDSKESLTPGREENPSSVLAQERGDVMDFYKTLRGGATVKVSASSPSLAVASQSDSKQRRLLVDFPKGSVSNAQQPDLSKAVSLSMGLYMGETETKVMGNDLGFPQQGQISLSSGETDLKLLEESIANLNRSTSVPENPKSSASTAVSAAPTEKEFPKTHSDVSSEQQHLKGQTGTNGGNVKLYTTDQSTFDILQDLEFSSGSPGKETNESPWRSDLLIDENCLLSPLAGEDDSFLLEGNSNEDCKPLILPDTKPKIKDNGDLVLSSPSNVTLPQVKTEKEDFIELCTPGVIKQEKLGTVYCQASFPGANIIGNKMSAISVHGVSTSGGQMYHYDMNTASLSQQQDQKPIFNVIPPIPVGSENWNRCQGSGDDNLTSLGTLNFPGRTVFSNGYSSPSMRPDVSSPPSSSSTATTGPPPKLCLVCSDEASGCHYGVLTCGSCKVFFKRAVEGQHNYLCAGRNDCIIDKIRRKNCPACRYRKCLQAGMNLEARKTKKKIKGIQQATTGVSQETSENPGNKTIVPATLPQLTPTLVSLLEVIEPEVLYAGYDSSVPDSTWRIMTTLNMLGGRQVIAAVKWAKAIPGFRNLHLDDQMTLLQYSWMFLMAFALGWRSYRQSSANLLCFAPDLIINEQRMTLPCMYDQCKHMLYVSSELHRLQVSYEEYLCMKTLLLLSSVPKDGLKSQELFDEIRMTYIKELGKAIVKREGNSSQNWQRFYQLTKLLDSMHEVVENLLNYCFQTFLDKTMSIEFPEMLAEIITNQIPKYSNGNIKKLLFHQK

Rattus norvegicus [12] = experiment: Androgenic activity in orchidectomized rat assessed as stimulation of prostate weight treated at 0.3 mg/kg, sc once daily for 14 days by Hershberger assay; assay type: organism-based, Prostate gland; parameters: dose 0.3 mg/kg, route subcutaneous; details: in vivo, 336 h
[13] = Volume of distribution in Wistar rat at 1 mg/kg, iv; assay type: ADME, organism-based; parameters: dose 1 mg/kg, route intravenous; details: in vivo
[14] = AUC (0 to infinity) in Wistar rat at 1 mg/kg, iv; assay type: ADME, organism-based; parameters: dose 1 mg/kg, route intravenous, time infinity; details: plasma
Rattus norvegicus [15] = experiment: AUC (0 to 48 hrs) in Wistar rat at 0.5 mg/kg, sc; assay type: ADME, organism-based, Plasma; parameters: time < 48 hr, dose 0.5 mg/kg, route subcutaneous; details: in vivo
[16] = Terminal half life in Wistar rat at 1 mg/kg, iv; assay type: ADME, organism-based; parameters: dose 1 mg/kg, route intravenous; details: in vivo, read-out: beta t1/2 (converted)
[17] = Tmax in Wistar rat at 0.5 mg/kg, sc; assay type: ADME, organism-based; parameters: dose 0.5 mg/kg, route subcutaneous; details: in vivo
[18] = Cmax in Wistar rat at 0.5 mg/kg, sc; assay type: ADME, organism-based; parameters: dose 0.5 mg/kg, route subcutaneous; details: in vivo
Estrogen receptor = target: T4, Estrogen receptor (Homo sapiens, UniProt P03372); experiment: Binding affinity to estrogen receptor (unknown origin) incubated for 4 hrs
T4 sequence (P03372 whole entry): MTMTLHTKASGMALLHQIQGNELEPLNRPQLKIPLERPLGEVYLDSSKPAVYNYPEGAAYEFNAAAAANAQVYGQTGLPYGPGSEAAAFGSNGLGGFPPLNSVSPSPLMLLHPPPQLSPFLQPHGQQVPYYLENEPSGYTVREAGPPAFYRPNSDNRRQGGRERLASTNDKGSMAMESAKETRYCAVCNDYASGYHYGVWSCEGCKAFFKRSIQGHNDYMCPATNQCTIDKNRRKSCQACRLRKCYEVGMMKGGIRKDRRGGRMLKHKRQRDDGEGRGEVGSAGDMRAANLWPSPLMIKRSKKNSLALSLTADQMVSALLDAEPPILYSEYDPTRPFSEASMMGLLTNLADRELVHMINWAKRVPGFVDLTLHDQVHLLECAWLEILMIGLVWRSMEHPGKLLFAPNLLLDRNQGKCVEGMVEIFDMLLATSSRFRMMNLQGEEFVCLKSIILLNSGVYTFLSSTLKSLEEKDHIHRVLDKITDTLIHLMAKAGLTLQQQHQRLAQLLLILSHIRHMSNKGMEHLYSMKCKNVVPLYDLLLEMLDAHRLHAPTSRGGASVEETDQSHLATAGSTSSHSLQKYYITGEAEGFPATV

Progesterone receptor = target: T5, Progesterone receptor (Homo sapiens, UniProt P06401); experiment: Binding affinity to progesterone receptor (unknown origin) incubated for 4 hrs
T5 sequence (P06401 whole entry): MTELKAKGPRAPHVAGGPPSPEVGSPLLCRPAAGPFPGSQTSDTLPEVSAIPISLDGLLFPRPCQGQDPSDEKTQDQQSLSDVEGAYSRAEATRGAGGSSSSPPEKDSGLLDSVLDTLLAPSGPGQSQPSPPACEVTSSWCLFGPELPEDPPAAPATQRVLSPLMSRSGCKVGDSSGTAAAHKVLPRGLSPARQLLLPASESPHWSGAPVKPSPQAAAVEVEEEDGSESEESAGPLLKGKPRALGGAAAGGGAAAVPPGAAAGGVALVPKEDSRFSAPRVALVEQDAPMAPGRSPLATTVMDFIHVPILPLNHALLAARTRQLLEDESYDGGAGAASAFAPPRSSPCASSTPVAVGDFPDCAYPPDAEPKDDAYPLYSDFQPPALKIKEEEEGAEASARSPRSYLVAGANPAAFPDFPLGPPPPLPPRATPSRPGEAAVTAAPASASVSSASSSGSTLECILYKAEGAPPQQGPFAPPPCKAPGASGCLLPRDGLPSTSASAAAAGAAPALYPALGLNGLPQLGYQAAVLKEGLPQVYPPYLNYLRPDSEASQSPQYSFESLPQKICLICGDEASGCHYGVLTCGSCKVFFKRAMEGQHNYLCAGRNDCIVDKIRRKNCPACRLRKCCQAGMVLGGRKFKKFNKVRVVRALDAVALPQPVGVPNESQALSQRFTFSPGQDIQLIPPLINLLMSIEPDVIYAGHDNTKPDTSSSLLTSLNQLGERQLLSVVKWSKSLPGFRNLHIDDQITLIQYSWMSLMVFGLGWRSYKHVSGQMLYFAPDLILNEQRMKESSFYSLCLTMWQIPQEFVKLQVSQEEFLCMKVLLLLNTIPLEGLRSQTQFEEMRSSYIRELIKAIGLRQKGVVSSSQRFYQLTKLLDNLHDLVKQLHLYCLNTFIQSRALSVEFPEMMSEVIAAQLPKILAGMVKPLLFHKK

Rattus norvegicus [19] = experiment: Anabolic activity in orchidectomized rat assessed as stimulation of bulbocavernosus/levator ani muscle weight treated at 0.3 mg/kg, sc once daily for 14 days by Hershberger assay; assay type: functional, organism-based; parameters: dose 0.3 mg/kg

SMILES | Emax [1] | Jss (Zone of skin) [ug/cm2.hr] | logP [2] | solubility thermodynamic [3] [µg/mL] | EC50 (Androgen receptor [4]) [nM] | permeability [5] | Drug uptake [6] | further results
COCCO[C@@H]1C(c2ccc(C#N)c(Cl)c2C)=NN2CC[C@H](O)[C@@H]12 | 82% | 1.1 | 2 | 2300 (≈ 6570 µM) |  |  |  | 
CO[C@@H]1C(c2ccc(C#N)c(Cl)c2C)=NN2CC[C@@H](O)[C@@H]12 | 86.7% | 0.2 | 1.9 | 250 (≈ 818 µM) | 0.4 |  |  | 
Cc1c(C2=NN3CC[C@H](O)[C@H]3[C@@H]2O)ccc(C#N)c1Cl | 55% |  |  |  | 978 |  |  | 
CO[C@@H]1C(c2ccc(C#N)c(Cl)c2C)=NN2C[C@@H](F)C[C@@H]12 | 86% |  |  |  | 1.4 |  |  | 
CO[C@@H]1C(c2ccc(C#N)c(Cl)c2C)=NN2CC(F)(F)C[C@@H]12 | 100% | 0.06 | 3.2 | 10 (≈ 30.7 µM) | 0.3 | permeable | Active | 
C[C@]12CC[C@H]3[C@@H](CCC4=CC(=O)CC[C@@]43C)[C@@H]1CC[C@@H]2O [TESTOSTERONE] |  | 0.19 |  | 40 (≈ 139 µM) |  | permeable | inactive | 
CCC(=O)O[C@H]1CC[C@H]2[C@@H]3CCC4=CC(=O)CC[C@]4(C)[C@H]3CC[C@]12C [TESTOSTERONE PROPIONATE] |  |  |  |  |  |  |  | ED50 (Rattus norvegicus [7]): 0.29 mg/kg; ED50 (Rattus norvegicus [8]): 0.31 mg/kg
CO[C@@H]1C(c2ccc(C#N)c(Cl)c2C)=NN2CC(=O)C[C@@H]12 | 93% |  |  |  | 26 |  |  | 
CO[C@H]1CCN2N=C(c3ccc(C#N)c(Cl)c3C)[C@@H](OC)[C@H]12 | 82% |  |  |  |  |  |  | 
CO[C@@H]1C(c2ccc(C#N)c(Cl)c2C)=NN2CC[C@H](F)[C@@H]12 | 93.5% |  |  |  | 1.5 |  |  | 
CO[C@@H]1C(c2ccc(C#N)c(Cl)c2C)=NN2C[C@@H](O)C[C@@H]12 | inactive |  |  |  |  |  |  | EC50 (Androgen receptor [9]): Not Active
CCO[C@@H]1C(c2ccc(C#N)c(Cl)c2C)=NN2CC[C@H](O)[C@@H]12 | 98.3% | 0.9 | 2.4 | 250 (≈ 782 µM) | 1 | permeable | inactive | 
CO[C@@H]1C(c2ccc(C#N)c(Cl)c2C)=NN2CC[C@H](O)[C@@H]12 | 97% | 2 | 2 | 1300 (≈ 4250 µM) |  | permeable | inactive | F (Rattus norvegicus [10]): 75%; IC50 (Androgen receptor [11]): 0.7 nM; IC50 (Glucocorticoid receptor): > 1000 nM; Activity (Rattus norvegicus [7]): Dose-dependent effect; ED50 (Rattus norvegicus [7]): 0.07 mg/kg; Activity (Rattus norvegicus [12]): Non-toxic; Vd [13]: 4.6 L/kg; AUC(0-inf) [14]: 708 ng·h/mL; AUC (Rattus norvegicus [15]): 670 ng·h/mL; half-life [16]: 5.7 h; Tmax [17]: 1.5 h; Cmax [18]: 79 ng/mL; IC50 (Estrogen receptor): > 1000 nM; ED50 (Rattus norvegicus [8]): 2.73 mg/kg; IC50 (Progesterone receptor): 700 nM; Activity (Rattus norvegicus [19]): Active
Cc1c(C2=NN3CC[C@H](O)[C@H]3[C@@H]2OC(C)C)ccc(C#N)c1Cl | 102% |  |  |  | 4.5 |  |  | 
CO[C@@H]1C(c2ccc(C#N)c(Cl)c2C)=NN2CC[C@@H](F)[C@@H]12 | 98% | 1.2 | 2.7 | 10 (≈ 32.5 µM) | 0.16 | permeable | inactive | 
CO[C@@H]1C(c2ccc(C#N)c(Cl)c2C)=NN2C[C@H](O)C[C@@H]12 | 75% |  |  |  | 9.7 |  |  | 

— ChEMBL document CHEMBL3351728, “3-alkoxy-pyrrolo[1,2-b]pyrazolines as selective androgen receptor modulators with ideal physicochemical properties for transdermal administration” (J Med Chem, 2014)
